In US20240327334A1, “Covalent Inhibitors As Antiviral Agents” (Enanta Pharmaceuticals, Inc., priority 2022, published 2024):

Each compound was assayed on SARS-CoV-2 replicon (assay: microbe, parasite or virus in culture). Details: Severe acute respiratory syndrome coronavirus 2, Huh-7.
Assay type: cell-based

SMILES | EC50 [µM]
O=C(NCC#Cc1nccs1)C(=O)NCc1ccccc1C(=O)NC1(c2cccc(-c3cnn(C4CC4)c3)c2Cl)CC1 [Example 385] | < 1
O=C(NCC#Cc1nccs1)C(=O)NCc1ccccc1C(=O)NC1(c2cc(F)cc(-c3ccn(C(F)F)n3)c2)CC1 [Example 136] | < 1
C#CCNC(=O)C(=O)NCc1ccccc1C(=O)NC1(c2cc(F)c(F)c(-c3cccs3)c2)CC1 [Example 241] | 1 to 10
O=C(NCC#Cc1nccs1)C(=O)NCc1cccnc1C(=O)NC1(c2cc(F)cc(-c3cnn(C4CC4)c3)c2)CC1 [Example 84] | < 1
COc1cc(C2(NC(=O)c3ccccc3CNC(=O)C(=O)N[C@@H](C)C#Cc3nccs3)CC2)cc2cn(C3CC3)nc12 [Example 336] | < 1
C#CCNC(=O)C(=O)NCc1ccccc1C(=O)NC1(c2ccc3nn(C)cc3c2)CC1 [Example 338] | < 1
Cc1nn(C2CC2)c(C)c1-c1cc(F)cc(C2(NC(=O)c3ccccc3CNC(=O)C(=O)NCC#Cc3nccs3)CC2)c1 [Example 139] | < 1
CC(C)c1cccnc1C#CCNC(=O)C(=O)NCc1ccccc1C(=O)NC1(c2ccc3ccccc3c2)CC1 [Example 404] | < 1
C[C@@H](C#Cc1nccs1)NC(=O)C(=O)NCc1ccccc1C(=O)N[C@H](C)c1cc(F)cc(-c2cnn(C(F)F)c2)c1 [Example 496] | < 1
CN(C)S(=O)(=O)n1cc(-c2cc(C3(NC(=O)c4ccccc4CNC(=O)C(=O)NCC#N)CC3)c3ccccc3c2)cn1 [Example 355] | < 1
Cn1cc2cc(C3(NC(=O)c4ccccc4CNC(=O)C(=O)NCC#Cc4ncccc4Cl)CC3)ccc2n1 [Example 269] | < 1
N#CCNC(=O)C(=O)NCc1ccccc1C(=O)NC1(c2cc(-c3cnn(C4CC4)c3)c3ccccc3c2)CC1 [Example 307] | 1 to 10
N#CC1(NC(=O)/C=C/CNC(=O)C(=O)NCc2ccccc2C(=O)NC2(c3cccc4ccccc34)CC2)CC1 [Example 564] | 1 to 10
O=C(NCC#Cc1ccc(Cl)nn1)C(=O)NCc1ccccc1C(=O)NC1(c2ccc3ccccc3c2)CC1 [Example 199] | < 1
N#CCNC(=O)C(=O)NCc1ccccc1C(=O)NC1(c2cc(-c3cncs3)cc3ccccc23)CC1 [Example 349] | < 1
C[C@@H](C#Cc1nccs1)NC(=O)C(=O)NCc1ccccc1C(=O)NC1(c2ccc3nn(C)cc3c2F)CC1 [Example 333] | < 1
C#CCNC(=O)C(=O)NCc1ccccc1C(=O)NC1(c2cc(-c3cnn(C4CC4)c3)cc(Cl)c2F)CC1 [Example 302] | < 1
CC(C#N)NC(=O)C(=O)NCc1ccccc1C(=O)NC1(c2cccc3ccccc23)CC1 (stereo not drawn) [Example 33] | > 10
N#Cc1cc(F)c(C#CCNC(=O)C(=O)NCc2ccccc2C(=O)NC2(c3ccc4ccccc4c3)CC2)c(F)c1 [Example 87] | < 1
C[C@@H](C#Cc1nccs1)NC(=O)C(=O)NCc1ccccc1C(=O)NC1(c2cc(F)cc(-c3cnn(C4COC4)c3)c2)CC1 [Example 254] | < 1
O=C(NCC#Cc1cncnc1)C(=O)NCc1ccccc1C(=O)NC1(c2cccc3ccccc23)CC1 [Example 158] | < 1
O=C(NCC#Cc1cscn1)C(=O)NCc1ccccc1C(=O)NC1(c2cccc3ccccc23)CC1 [Example 159] | < 1
O=C(NCC#Cc1nccs1)C(=O)NCc1ccccc1C(=O)NC1(c2cc(Cl)cc(-c3cncs3)c2)CC1 [Example 446] | < 1
N#Cc1ccc(C#CCNC(=O)C(=O)NCc2ccccc2C(=O)NC2(c3ccc4ccccc4c3)CC2)nc1 [Example 190] | < 1
CCN(OC)C(=O)/C=C/CNC(=O)C(=O)NCc1ccccc1C(=O)NC1(c2cccc3ccccc23)CC1 [Example 558] | 1 to 10
Cn1cc2cc(C3(NC(=O)c4ccccc4CNC(=O)C(=O)NCC#Cc4ccc(S(C)(=O)=O)cc4F)CC3)ccc2n1 [Example 147] | < 1
O=C(NCC#Cc1ncccc1C(F)(F)F)C(=O)NCc1ccccc1C(=O)NC1(c2ccc3ccccc3c2)CC1 [Example 191] | < 1
O=C(NCC#Cc1nccs1)C(=O)NCc1ccccc1C(=O)NC1(c2cc(F)cc(C(=O)Nc3ccc(F)cc3F)c2)CC1 [Example 82] | < 1
N#CCNC(=O)C(=O)NCc1cnccc1C(=O)NC1(c2cccc3ccccc23)CC1 [Example 366] | 1 to 10
N#Cc1ccccc1C#CCNC(=O)C(=O)NCc1ccccc1C(=O)NC1(c2ccc3ccccc3c2)CC1 [Example 94] | < 1

The compounds below were run against SARS-CoV-2 Papain-like (PLpro) protease (Severe acute respiratory syndrome coronavirus 2, UniProt P0DTD1) (assay: SARS-CoV-2 Papain-like (PLpro) protease biochemical enzyme inhibition assay (ubiquitin-fluorophore substrate, Ub-R110)). Details: Ub-R110 substrate; run in duplicate; read-out: PLpro IC50.

SMILES | IC50 [µM]
O=C(NCC#Cc1nccs1)C(=O)NCc1ccccc1C(=O)NC1(c2cccc(-c3cnn(C4CC4)c3)c2Cl)CC1 [Example 385] | < 0.1
O=C(NCC#Cc1nccs1)C(=O)NCc1ccccc1C(=O)NC1(c2cc(F)cc(-c3ccn(C(F)F)n3)c2)CC1 [Example 136] | < 0.1
C#CCNC(=O)C(=O)NCc1ccccc1C(=O)NC1(c2cc(F)c(F)c(-c3cccs3)c2)CC1 [Example 241] | < 0.1
O=C(NCC#Cc1nccs1)C(=O)NCc1cccnc1C(=O)NC1(c2cc(F)cc(-c3cnn(C4CC4)c3)c2)CC1 [Example 84] | < 0.1
COc1cc(C2(NC(=O)c3ccccc3CNC(=O)C(=O)N[C@@H](C)C#Cc3nccs3)CC2)cc2cn(C3CC3)nc12 [Example 336] | < 0.1
C#CCNC(=O)C(=O)NCc1ccccc1C(=O)NC1(c2ccc3nn(C)cc3c2)CC1 [Example 338] | < 0.1
Cc1nn(C2CC2)c(C)c1-c1cc(F)cc(C2(NC(=O)c3ccccc3CNC(=O)C(=O)NCC#Cc3nccs3)CC2)c1 [Example 139] | < 0.1
CC(C)c1cccnc1C#CCNC(=O)C(=O)NCc1ccccc1C(=O)NC1(c2ccc3ccccc3c2)CC1 [Example 404] | < 0.1
C[C@@H](C#Cc1nccs1)NC(=O)C(=O)NCc1ccccc1C(=O)N[C@H](C)c1cc(F)cc(-c2cnn(C(F)F)c2)c1 [Example 496] | < 0.1
CN(C)S(=O)(=O)n1cc(-c2cc(C3(NC(=O)c4ccccc4CNC(=O)C(=O)NCC#N)CC3)c3ccccc3c2)cn1 [Example 355] | < 0.1
Cn1cc2cc(C3(NC(=O)c4ccccc4CNC(=O)C(=O)NCC#Cc4ncccc4Cl)CC3)ccc2n1 [Example 269] | < 0.1
N#CCNC(=O)C(=O)NCc1ccccc1C(=O)NC1(c2cc(-c3cnn(C4CC4)c3)c3ccccc3c2)CC1 [Example 307] | < 0.1
N#CC1(NC(=O)/C=C/CNC(=O)C(=O)NCc2ccccc2C(=O)NC2(c3cccc4ccccc34)CC2)CC1 [Example 564] | 0.1 to 1
O=C(NCC#Cc1ccc(Cl)nn1)C(=O)NCc1ccccc1C(=O)NC1(c2ccc3ccccc3c2)CC1 [Example 199] | < 0.1
N#CCNC(=O)C(=O)NCc1ccccc1C(=O)NC1(c2cc(-c3cncs3)cc3ccccc23)CC1 [Example 349] | < 0.1
C[C@@H](C#Cc1nccs1)NC(=O)C(=O)NCc1ccccc1C(=O)NC1(c2ccc3nn(C)cc3c2F)CC1 [Example 333] | < 0.1
C#CCNC(=O)C(=O)NCc1ccccc1C(=O)NC1(c2cc(-c3cnn(C4CC4)c3)cc(Cl)c2F)CC1 [Example 302] | < 0.1
CC(C#N)NC(=O)C(=O)NCc1ccccc1C(=O)NC1(c2cccc3ccccc23)CC1 (stereo not drawn) [Example 33] | 0.1 to 1
N#Cc1cc(F)c(C#CCNC(=O)C(=O)NCc2ccccc2C(=O)NC2(c3ccc4ccccc4c3)CC2)c(F)c1 [Example 87] | < 0.1
C[C@@H](C#Cc1nccs1)NC(=O)C(=O)NCc1ccccc1C(=O)NC1(c2cc(F)cc(-c3cnn(C4COC4)c3)c2)CC1 [Example 254] | < 0.1
O=C(NCC#Cc1cncnc1)C(=O)NCc1ccccc1C(=O)NC1(c2cccc3ccccc23)CC1 [Example 158] | < 0.1
O=C(NCC#Cc1cscn1)C(=O)NCc1ccccc1C(=O)NC1(c2cccc3ccccc23)CC1 [Example 159] | < 0.1
O=C(NCC#Cc1nccs1)C(=O)NCc1ccccc1C(=O)NC1(c2cc(Cl)cc(-c3cncs3)c2)CC1 [Example 446] | < 0.1
N#Cc1ccc(C#CCNC(=O)C(=O)NCc2ccccc2C(=O)NC2(c3ccc4ccccc4c3)CC2)nc1 [Example 190] | < 0.1
CCN(OC)C(=O)/C=C/CNC(=O)C(=O)NCc1ccccc1C(=O)NC1(c2cccc3ccccc23)CC1 [Example 558] | 0.1 to 1
Cn1cc2cc(C3(NC(=O)c4ccccc4CNC(=O)C(=O)NCC#Cc4ccc(S(C)(=O)=O)cc4F)CC3)ccc2n1 [Example 147] | < 0.1
O=C(NCC#Cc1ncccc1C(F)(F)F)C(=O)NCc1ccccc1C(=O)NC1(c2ccc3ccccc3c2)CC1 [Example 191] | < 0.1
O=C(NCC#Cc1nccs1)C(=O)NCc1ccccc1C(=O)NC1(c2cc(F)cc(C(=O)Nc3ccc(F)cc3F)c2)CC1 [Example 82] | < 0.1
N#CCNC(=O)C(=O)NCc1cnccc1C(=O)NC1(c2cccc3ccccc23)CC1 [Example 366] | < 0.1
N#Cc1ccccc1C#CCNC(=O)C(=O)NCc1ccccc1C(=O)NC1(c2ccc3ccccc3c2)CC1 [Example 94] | < 0.1
